The values that follow come from patent publication EP4603105A1, “PHARMACEUTICAL COMPOSITION CONTAINING CYCLIC COMPOUND HAVING SELECTIVE KRAS INHIBITORY EFFECT AGAINST HRAS AND NRAS” (CHUGAI SEIYAKU KABUSHIKI KAISHA, priority 2022, dated 2024).

In general, IC50 refers to the concentration at which inhibition is half-maximal. The low end stands for greater potency in that assay, the high end for weaker potency in that assay.

Where a SMILES comes first, the peptide text is derived from it. Bridges are numbered along the chain shown (N, C = ends). [ ]: non-standard residue; d: D form. The star is where a group is joined. hPhe(3-Cl-4-CF3) = N[C@@H](CCc1ccc(C(F)(F)F)c(Cl)c1)C(=O)O; NPrPhe(4-CF3) = CCCN[C@@H](Cc1ccc(C(F)(F)F)cc1)C(=O)O; NMeGly(cPent) = CN[C@H](C(=O)O)C1CCCC1; Pro(4S-Me) = C[C@@H]1CN[C@H](C(=O)O)C1; NMeD = CN[C@@H](CC(=O)O)C(=O)O; NMeL = CN[C@@H](CC(C)C)C(=O)O; Morpholide = C1CN(*)CCO1; NMeA = CN[C@@H](C)C(=O)O; Ac5c = NC1(C(=O)O)CCCC1; Aze = O=C(O)[C@@H]1CCN1; NEtG = CCNCC(=O)O; Sar = CNCC(=O)O

This assay has as its system human lung cancer strain NCI-H441. The class given is cell-based. How it is done:
A test compound was dispensed into a U-bottom 384-well plate as 40 nL serially diluted dimethyl sulfoxide solutions using a liquid handler Echo (LABCYTE). […] This cell suspension was dispensed in an amount of 40 µL per well into a plate containing the test compound, and cultured at 37°C in a 5% carbon dioxide gas incubator. Four days later, 20 µL of CellTiter-Glo (registered trademark) (Promega) was added to each well and […] was measured. […]
The molecule `CCCN1C(=O)CN(C)C(=O)CN(CC)C(=O)[C@H]([C@@H](C)CC)NC(=O)[C@H](CC(C)C)N(C)C(=O)C[C@@H](C(=O)N2CCOCC2)N(C)C(=O)[C@H](C2CCCC2)N(C)C(=O)C2(CCCC2)NC(=O)[C@@H]2C[C@H](C)CN2C(=O)[C@H](CCc2ccc(C(F)(F)F)c(Cl)c2)NC(=O)CN(C)C(=O)[C@@H]1Cc1ccc(C(F)(F)F)cc1` [PP0451] ([NMeL]I[NEtG][Sar][NPrPhe(4-CF3)][Sar][hPhe(3-Cl-4-CF3)][Pro(4S-Me)][Ac5c][NMeGly(cPent)][NMeD]-Morpholide; lactam N-11) gave an IC50 of 0.0112 µM.
The figure for `CCCN1C(=O)[C@@H]2CCN2C(=O)[C@H](C)N(C)C(=O)[C@H]([C@@H](C)CC)NC(=O)[C@H](CC(C)C)N(C)C(=O)C[C@@H](C(=O)N2CCOCC2)N(C)C(=O)[C@H](C2CCCC2)N(C)C(=O)C2(CCCC2)NC(=O)[C@@H]2C[C@H](C)CN2C(=O)[C@H](CCc2ccc(C(F)(F)F)c(Cl)c2)NC(=O)CN(C)C(=O)[C@@H]1Cc1ccc(C(F)(F)F)cc1` [PP0455] ([NMeL]I[NMeA][Aze][NPrPhe(4-CF3)][Sar][hPhe(3-Cl-4-CF3)][Pro(4S-Me)][Ac5c][NMeGly(cPent)][NMeD]-Morpholide; lactam N-11) is 0.0099 µM.
The value for `CC[C@H](C)[C@@H]1NC(=O)[C@H](CC(C)C)N(C)C(=O)C[C@@H](C(=O)N2CCOCC2)N(C)C(=O)[C@H](C2CCCC2)NC(=O)C2(CCCC2)NC(=O)[C@@H]2CCCN2C(=O)[C@H](CCc2cc(F)c(C(F)(F)F)c(F)c2)NC(=O)CN(C)C(=O)[C@H](Cc2ccc(C(F)(F)F)cc2)N2CCCCC[C@@H](C2=O)N(C)C(=O)CN(C)C1=O` [PP0478] was 2.75 µM; that for `CCO[C@@H]1C[C@H]2C(=O)NC3(CCC3)C(=O)N(C)[C@@H](C(CC)CC)C(=O)N(C)[C@H](C)CC(=O)N(C)[C@@H](CC3CCCC3)C(=O)N[C@@H]([C@@H](C)CC)C(=O)N(C)CC(=O)N(C)[C@H]3C/C=C\CCN(C3=O)[C@@H](Cc3ccc(F)cc3)C(=O)N(C)CC(=O)N[C@@H](CCc3cc(F)c(C(F)(F)F)c(F)c3)C(=O)N2C1` [PP1523] was 0.32 µM; that for `CCC[C@H]1C(=O)N[C@@H]([C@@H](C)CC)C(=O)N(C)CC(=O)N(C)[C@H]2C/C=C\CCN(C2=O)[C@@H](Cc2ccc(C)cc2)C(=O)N(C)CC(=O)N[C@@H](CCc2ccc(C(F)(F)F)c(Cl)c2)C(=O)N2C[C@@H](C)C[C@H]2C(=O)NC2(CCC2)C(=O)N(C)[C@@H](C2CCCC2)C(=O)N(C)[C@H](C(=O)N(C)CC)CC(=O)N1C` [PP1848] was 0.0225 µM.
The figure for `CCC[C@H]1C(=O)N[C@@H]([C@@H](C)CC)C(=O)N(C)CC(=O)N(C)[C@H]2C/C=C\CCN(C2=O)[C@@H](Cc2ccc(C)cc2)C(=O)N(C)CC(=O)N[C@@H](CCc2ccc(C(F)(F)F)c(Cl)c2)C(=O)N2C[C@H](C)C[C@H]2C(=O)NC2(CCC2)C(=O)N(C)[C@@H](C2CCCC2)C(=O)N(C)[C@H](C(=O)N(C)CC)CC(=O)N1C` [PP1850] is 0.0491 µM; for `CC[C@H](C)[C@@H]1NC(=O)[C@H](CC)N(C)C(=O)C[C@@H](C(=O)N(C)CC)N(C)C(=O)[C@H](C2CCCC2)N(C)C(=O)C2(CCC2)NC(=O)[C@@H]2C[C@H](C)CN2C(=O)[C@H](CCc2ccc(C(F)(F)F)c(OC)c2)NC(=O)CN(C)C(=O)[C@H](Cc2ccc(C)cc2)N2CC/C=C\C[C@@H](C2=O)N(C)C(=O)CN(C)C1=O` [PP1853] it is 0.0304 µM; for `CC[C@H](C)[C@@H]1NC(=O)[C@H](CC(F)F)N(C)C(=O)C[C@@H](C(=O)N(C)C)N(C)C(=O)[C@H](C2CCCC2)N(C)C(=O)C2(CC(C)(C)C2)NC(=O)[C@@H]2C[C@H](C)CN2C(=O)[C@H](CCc2ccc(C(F)(F)F)c(OC)c2)NC(=O)CN(C)C(=O)[C@H](Cc2ccc(C)cc2)N2CC/C=C\C[C@@H](C2=O)N(C)C(=O)CN(C)C1=O` [PP1875] it is 0.0077 µM.
With `CC[C@H](C)[C@@H]1NC(=O)[C@H](CC(F)F)N(C)C(=O)C[C@@H](C(=O)N(C)C)N(C)C(=O)[C@H](C2CCCC2)N(C)C(=O)C2(CC(C)(C)C2)NC(=O)[C@@H]2C[C@@H](C)CN2C(=O)[C@H](CCc2ccc(C(F)(F)F)c(OC)c2)NC(=O)CN(C)C(=O)[C@H](Cc2ccc(C)cc2)N2CC/C=C\C[C@@H](C2=O)N(C)C(=O)CN(C)C1=O` [PP1877], it took 0.0184 µM to reach half-maximal inhibition (IC50).
The figure for `CC[C@H](C)[C@@H]1NC(=O)[C@H](CC)N(C)C(=O)C[C@@H](C(=O)N(C)CC)N(C)C(=O)[C@H](C2CCCC2)N(C)C(=O)C2(CC(C)(C)C2)NC(=O)[C@@H]2C[C@H](C)CN2C(=O)[C@H](CCc2cc(F)c(C(F)(F)F)c(F)c2)NC(=O)CN(C)C(=O)[C@H](Cc2ccc(C)cc2)N2CC/C=C\C[C@@H](C2=O)N(C)C(=O)CN(C)C1=O` [PP1882] is 0.0202 µM; for `CC[C@H](C)[C@@H]1NC(=O)[C@H](CC)N(C)C(=O)C[C@@H](C(=O)N(C)CC)N(C)C(=O)[C@H](C2CCCC2)N(C)C(=O)C2(CC(C)(C)C2)NC(=O)[C@@H]2C[C@@H](C)CN2C(=O)[C@H](CCc2cc(F)c(C(F)(F)F)c(F)c2)NC(=O)CN(C)C(=O)[C@H](Cc2ccc(C)cc2)N2CC/C=C\C[C@@H](C2=O)N(C)C(=O)CN(C)C1=O` [PP1884] it is 0.0173 µM.
The value for `CC[C@H](C)[C@@H]1NC(=O)[C@H](CC2CC2)N(C)C(=O)C[C@@H](C(=O)N(C)CC)N(C)C(=O)[C@H](C2CCCC2)N(C)C(=O)C2(CCC2)NC(=O)[C@@H]2C[C@H](C)CN2C(=O)[C@H](CCc2ccc(C(F)(F)F)c(OC)c2)NC(=O)CN(C)C(=O)[C@H](Cc2ccc(C)cc2)N2CC/C=C\C[C@@H](C2=O)N(C)C(=O)CN(C)C1=O` [PP1897] was 0.0226 µM; that for `CC[C@H](C)[C@@H]1NC(=O)[C@H](CC2CC2)N(C)C(=O)C[C@@H](C(=O)N(C)CC)N(C)C(=O)[C@H](C2CCCC2)N(C)C(=O)C2(CCC2)NC(=O)[C@@H]2C[C@@H](C)CN2C(=O)[C@H](CCc2ccc(C(F)(F)F)c(OC)c2)NC(=O)CN(C)C(=O)[C@H](Cc2ccc(C)cc2)N2CC/C=C\C[C@@H](C2=O)N(C)C(=O)CN(C)C1=O` [PP1900] was 0.0247 µM; that for `CCCN1C(=O)CN(C)C(=O)CN(C)C(=O)[C@H]([C@@H](C)CC)NC(=O)[C@H](CC(C)C)N(C)C(=O)C[C@@H](C(=O)N2CCOCC2)N(C)C(=O)[C@H](C2CCCC2)N(C)C(=O)C2(CCCC2)NC(=O)[C@H](C)NC(=O)[C@H](CCc2ccc(C(F)(F)F)c(Cl)c2)NC(=O)CN(C)C(=O)[C@@H]1Cc1ccc(C(F)(F)F)cc1` [PP1914] ([NMeL]I[Sar][Sar][NPrPhe(4-CF3)][Sar][hPhe(3-Cl-4-CF3)]A[Ac5c][NMeGly(cPent)][NMeD]-Morpholide; lactam N-11) was 0.0397 µM.
The value for `CCCN(C)C(=O)[C@@H]1CC(=O)N(C)[C@@H](COCC)C(=O)N[C@@H]([C@@H](C)CC)C(=O)N(C)CC(=O)N(C)[C@H]2C/C=C\CCN(C2=O)[C@@H](Cc2ccc(C(F)(F)F)cc2)C(=O)N(C)CC(=O)N[C@@H](CCc2cc(F)c(C(F)(F)F)c(F)c2)C(=O)N2C[C@@H](C)C[C@H]2C(=O)NC2(CCC2)C(=O)N(C)[C@@H](C2CCCC2)C(=O)N1C` [PP2002] was 0.0157 µM; that for `CCO[C@@H]1C[C@H]2C(=O)NC3(CCC3)C(=O)N(C)[C@@H](C3CCCC3)C(=O)N(C)[C@H](C(=O)N(C)CC)CC(=O)N(C)[C@@H](C(C)C)C(=O)N[C@@H]([C@@H](C)CC)C(=O)N(C)CC(=O)N(C)[C@H]3C/C=C\CCN(C3=O)[C@@H](Cc3ccc(C(F)(F)F)cc3)C(=O)N(C)CC(=O)N[C@@H](CCc3ccc(C(F)(F)F)c(OC)c3)C(=O)N2C1` [PP2019] was 0.0045 µM; that for `CCCN(C)C(=O)[C@@H]1CC(=O)N(C)[C@@H](CCOC)C(=O)N[C@@H]([C@@H](C)CC)C(=O)N(C)CC(=O)N(C)[C@H]2C/C=C\CCN(C2=O)[C@@H](Cc2ccc(C(F)(F)F)cc2)C(=O)N(C)CC(=O)N[C@@H](CCc2cc(F)c(C(F)(F)F)c(F)c2)C(=O)N2C[C@H](OCC)C[C@H]2C(=O)NC2(CC(C)(C)C2)C(=O)N(C)[C@@H](C2CCCC2)C(=O)N1C` [PP2033] was 0.0118 µM.
Consider `C#CCN1CC(=O)N(C)[C@H]2C/C=C\CCN(C2=O)[C@@H](Cc2ccc(C)cc2)C(=O)N(C)CC(=O)N[C@@H](CCc2ccc(C(F)(F)F)c(OC)c2)C(=O)N2C[C@H](OCC)C[C@H]2C(=O)NC2(CC(C)(C)C2)C(=O)N(C)[C@@H](C2CCCC2)C(=O)N(C)[C@H](C(=O)N(C)C)CC(=O)N(C)[C@@H](CC(C)C)C(=O)N[C@@H]([C@@H](C)CC)C1=O` [PP2060], for which the IC50 was 0.0074 µM.
The value for `CC[C@H](C)[C@@H]1NC(=O)[C@H](CC(C)C)N(C)C(=O)CSC[C@H](C(=O)N(C)C)N(C)C(=O)[C@H](C2CCCC2)N(C)C(=O)C2(CCCC2)NC(=O)[C@@H]2CCCN2C(=O)[C@H](CCc2cc(F)c(C(F)(F)F)c(F)c2)NC(=O)CN(C)C(=O)[C@H](Cc2ccc(C(F)(F)F)cc2)N2CC/C=C\C[C@@H](C2=O)N(C)C(=O)CN(C)C1=O` [PP3109] was 3.42 µM; that for `CCO[C@@H]1C[C@H]2C(=O)NC3(CC(C)(C)C3)C(=O)N(C)[C@@H](C3CCCC3)C(=O)N(C)[C@H](C(=O)N(C)CC)CC(=O)N(C)[C@@H]([C@@H](C)OC)C(=O)N[C@@H]([C@@H](C)CC)C(=O)N(C)CC(=O)N(C)[C@H]3C/C=C\CCN(C3=O)[C@@H](Cc3ccc(C(F)(F)F)cc3)C(=O)N(C)CC(=O)N[C@@H](CCc3ccc(C(F)(F)F)c(Cl)c3)C(=O)N2C1` [PP3162] was 0.0096 µM.
